A value given as a limit tells only on which side of the number the result lay.

In this test the target is T1, human CTPS1 (Homo sapiens, UniProt P17812).
T1 construct: purchased Proteros biostructures GmbH
T1 sequence (P17812 1-591): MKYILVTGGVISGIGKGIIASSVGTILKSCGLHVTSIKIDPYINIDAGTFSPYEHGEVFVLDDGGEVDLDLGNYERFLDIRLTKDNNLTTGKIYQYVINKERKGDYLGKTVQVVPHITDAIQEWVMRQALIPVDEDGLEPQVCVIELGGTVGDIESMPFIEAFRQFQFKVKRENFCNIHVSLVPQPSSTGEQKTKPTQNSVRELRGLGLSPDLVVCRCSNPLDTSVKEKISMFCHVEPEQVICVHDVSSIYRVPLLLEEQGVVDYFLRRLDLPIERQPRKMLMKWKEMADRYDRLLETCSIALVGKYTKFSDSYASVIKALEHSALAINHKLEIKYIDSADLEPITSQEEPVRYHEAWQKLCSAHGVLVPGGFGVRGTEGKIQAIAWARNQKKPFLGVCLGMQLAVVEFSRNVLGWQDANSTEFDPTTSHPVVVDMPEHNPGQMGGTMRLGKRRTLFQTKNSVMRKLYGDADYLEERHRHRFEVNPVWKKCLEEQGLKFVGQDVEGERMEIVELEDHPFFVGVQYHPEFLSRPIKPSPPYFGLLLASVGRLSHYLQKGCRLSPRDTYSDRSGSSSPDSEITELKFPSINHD
Description: Human CTPS1 enzyme inhibition (ADP-Glo Max assay). The test is classed as biochemical. The note with it: human full length CTPS1, 25° C., read-out: CTPS1 (Human CTPS1 Enzyme Inhibition, IC50 grouped by potency range). As for the experimental part: The enzyme inhibitory activities of compounds invented against the target of interest were determined using the ADP-GIoTM Max assay (Promega, UK). Assays for human CTPS1 were performed in lx assay buffer containing 50mM Tris, 10mM MgCl2, 0.01% Tween-20, pH to 8.0 accordingly. Finally, immediately before use, L-cysteine was added to the lx assay buffer to a final concentration of 2mM. All reagents are from Sigma-Aldrich unless specified otherwise. Human full length active C-terminal FLAG-Hiss-tag CTPS1 (UniProtKB - P17812, CTPS[1-591]-[…]) was obtained from Proteros biostructures GmbH.
Assay Procedure 3× human CTPS1 protein was prepared in lx assay buffer to the final working protein concentration required for the reaction. A 2uL volume per well of 3x human CTPS1 protein was mixed with 2uL per well of 3× test compound (compound prepared in lx assay buffer to an appropriate final 3× compound concentration respective to the concentration response curve designed for the compounds under test) for 10 minutes at 25° C. The enzymatic reaction was then initiated by addition of a 2uL per well volume of a pre-mixed substrate mix (UltraPure ATP from ADP-GIo™ Max kit (0.31mM), GTP (0.034mM), UTP (0.48mM) and L-glutamine (0.186mM)) and the mixture was incubated for an appropriate amount of time within the determined linear phase of the reaction at 25° C. under sealed plate conditions with constant agitation at 500 revolutions per minute (rpm). ADP-GIo™ Max reagent was added for 60 minutes ([…] per well) and subsequently ADP-GIo™ Max development reagent was added for 60 minutes (12uL per well) prior to signal detection in a microplate reader (EnVision® Multilabel Reader, Perkin Elmer). Following each reagent addition over the course of the assay, assay plates were pulse centrifuged for 30 seconds at 500rpm.
In all cases, the enzyme converts ATP to ADP and the ADP-GIo™ Max reagent subsequently depletes any remaining endogenous ATP in the reaction system. The ADP-GIo™ Max detection reagent converts the ADP that has been enzymatically produced back into ATP and using ATP as a substrate together with luciferin for the enzyme luciferase, light is generated which produces a detectable luminescence. […] The percentage inhibition produced by each concentration of compound was calculated using the equation shown below: […]
Percentage inhibition was then plotted against compound concentration, and the 50% inhibitory concentration (IC50) was determined from the resultant concentration-response curve.
For orientation: ADP-Glo turns the ADP formed in a reaction into a luminescent signal.

As a reminder, the IC50 is the point on the concentration scale where inhibition reaches its midpoint. Turning to `CCC(C(=O)Nc1ccc(-c2cncc(OCC(F)(F)F)c2)cc1)c1ccnc(NS(=O)(=O)C2CC2)n1` (centres unmarked) [P100, 2-(2-(cyclopropanesulfonamido)pyrimidin-4-yl)-N-(4-(5-(2,2,2-trifluoroethoxy)pyridin-3-yl)phenyl)butanamide], the IC50 lay in the range of 100 to 1000 nM.

For the compound `CCC(C(=O)Nc1ccc(-c2cncc(Cl)c2)cc1)c1cccc(NS(=O)(=O)C2CC2)n1` (centres unmarked) [P189, N-(4-(5-chloropyridin-3-yl)phenyl)-2-(6-(cyclopropanesulfonamido)pyridin-2-yl)butanamide], the IC50 was in the range of 1000 to 10000 nM.

In the case of `CCC(C(=O)Nc1ccc(-c2cnccn2)cc1F)c1ccnc(NS(=O)(=O)C2CC2)n1` (centres unmarked) [P6, 2-(2-(Cyclopropanesulfonamido)pyrimidin-4-yl)-N-(2-fluoro-4-(pyrazin-2-yl)phenyl)butanamide], the IC50 was in the range of 100 to 1000 nM.

Take `CCC(C(=O)Nc1ccc(-c2cncc(OC(C)C)c2)cc1)c1ccnc(NS(=O)(=O)C2CC2)n1` (centres unmarked) [P101, 2-(2-(cyclopropanesulfonamido)pyrimidin-4-yl)-N-(4-(5-isopropoxypyridin-3-yl)phenyl)butanamide]: the IC50 fell in the range of 100 to 1000 nM.

On to `CCC(C(=O)Nc1ccc(-c2cncc(Cl)c2)cc1F)c1ccnc(NS(=O)(=O)C2CC2)n1` (centres unmarked) [P90, N-(4-(5-chloropyridin-3-yl)-2-fluorophenyl)-2-(2-(cyclopropanesulfonamido)pyrimidin-4-yl)butanamide], for which the IC50 is 100 to 1000 nM.

`CCOc1cncc(-c2ccc(C(=O)NC(CC)c3cncc(NS(=O)(=O)C4CC4)n3)c(F)c2)n1` (single isomer, unassigned) [P224, N-(1-(6-(cyclopropanesulfonamido)pyrazin-2-yl)propyl)-4-(6-ethoxypyrazin-2-yl)-2-fluorobenzamide]: the IC50 is 100 to 1000 nM.

Regarding `CCC(C(=O)Nc1ccc(-c2cccnc2)cn1)c1ccnc(NS(=O)(=O)C2CC2)n1` (centres unmarked) [P86, N-([3,3′-bipyridin]-6-yl)-2-(2-(cyclopropanesulfonamido)pyrimidin-4-yl)butanamide], the IC50 was in the range of 1000 to 10000 nM.

Turning to `CCC(C(=O)Nc1ccc(-c2cncc(OC)n2)cc1)c1ccnc(NS(=O)(=O)C2CC2)n1` (centres unmarked) [P106, 2-(2-(cyclopropanesulfonamido)pyrimidin-4-yl)-N-(4-(6-methoxypyrazin-2-yl)phenyl)butanamide], the IC50 is at most 100 nM.

On to `CCC(C(=O)Nc1ccc(-c2cncc(C(F)(F)F)c2)cc1)c1ccnc(NS(=O)(=O)C2CC2)n1` (centres unmarked) [P7, 2-(2-(Cyclopropanesulfonamido)pyrimidin-4-yl)-N-(4-(5-(trifluoromethyl)pyridin-3-yl)phenyl)butanamide], for which the IC50 was in the range of 100 to 1000 nM.

As to `CCC(C(=O)Nc1ccc(-c2cnccn2)cc1)c1ccnc(NS(=O)(=O)C2CC2)n1` (centres unmarked) [P109, 2-(2-(cyclopropanesulfonamido)pyrimidin-4-yl)-N-(4-(pyrazin-2-yl)phenyl)butanamide], the IC50 fell in the range of 100 to 1000 nM.

Consider `CCC(C(=O)Nc1ccc(-c2cncc(Cl)n2)cc1)c1ccnc(NS(=O)(=O)C2CC2)n1` (centres unmarked) [P104, N-(4-(6-chloropyrazin-2-yl)phenyl)-2-(2-(cyclopropanesulfonamido)pyrimidin-4-yl)butanamide], for which the IC50 is 100 to 1000 nM.

Regarding `CCC(NC(=O)c1ccc(-c2cncc(Cl)c2)cc1)c1ccnc(NS(=O)(=O)C2CC2)n1` (centres unmarked) [P214, 4-(5-chloropyridin-3-yl)-N-(1-(2-(cyclopropanesulfonamido)pyrimidin-4-yl)propyl)benzamide], the IC50 was in the range of 100 to 1000 nM.

With `CCOc1cncc(-c2ccc(C(=O)NC(CC)c3cncc(NS(=O)(=O)C4CC4)n3)c(F)c2)n1` (centres unmarked) [P223, N-(1-(6-(cyclopropanesulfonamido)pyrazin-2-yl)propyl)-4-(6-ethoxypyrazin-2-yl)-2-fluorobenzamide], the IC50 is 100 to 1000 nM.

Regarding `CCC(C(=O)Nc1ccc(-c2cncc(C(F)(F)F)n2)cc1F)c1ccnc(NS(=O)(=O)C2CC2)n1` (centres unmarked) [P94, 2-(2-(cyclopropanesulfonamido)pyrimidin-4-yl)-N-(2-fluoro-4-(6-(trifluoromethyl)pyrazin-2-yl)phenyl)butanamide], the IC50 is at most 100 nM.

Source of the values: patent publication US20210024507A1, “Compounds” (Step Pharma S.A.S., priority 2018, published 2021).
